This note sets out measurements from US20180104354A1, “CHIMERIC ANTIGEN RECEPTOR T CELL SWITCHES AND USES THEREOF” (The California Institute for Biomedical Research, priority 2013, published 2018).

Values joined by “and” are separate entries in the source; they are usually repeats but may differ in a detail not shown here. Equal values may be shown once. Read-outs that look alike come from different tables or passages of the source.

The test system of data set [1] is KB (FR+) cells. In words: In vitro cytotoxicity assay of anti-FITC-CAR-Ts with Folate-FITC, KB. The format is cell-based. Here is the method:
(§1) Transduced human effector cells (˜50% transduction efficiency) were co-incubated with target cells at 10:1 (total T cells to target cells) ratio for 24 hr in the presence of varying concentrations of FITC “switches.” Redirected lysis of target cells was determined by CytoTox96 nonradioactive cytotoxicity assay kit (Promega, Madison, Wis.) according to manufacturer's protocol. The percentage of cytotoxicity was calculated by: % cytotoxicity=(Absorbance experimental average−Absorbance spontaneous average)/(absorbance max killing average−Absorbance spontaneous average)×100.
(§2) Human PBMCs were freshly isolated from whole blood of healthy donors by centrifugation with Ficoll-Paque PLUS (GE healthcare, Piscataway, N.J.) density gradient medium according to manufacturer's protocol. Cells were immediately activated with Dynabeads Human […] CD3/CD28 (Life Technologies, Carlsbad, Calif.) at 3:1 (bead to cell) ratio in AIM-V media (Life Technologies) containing 5% human AB serum (Valley Biomedical, Winchester, Va.). Lentiviral production was carried out using HEK293FT cell lines. Viral supernatant was used directly to transduce activated PBMCs via spinoculation in the presence of protamine sulfate and recombinant human IL2 (R&D systems, Minneapolis, Minn.). C4-2, KB, and A549 cell lines were maintained in RPMI-1640, Eagles's Minimum Essential Media, and F-12K medium supplemented with 10% fetal bovine serum, respectively (all from Life Technologies).
(§3) FIG. 6B-6C depicts the results from an in vitro cytotoxicity assay of anti-FITC-CAR-Ts co-incubated with KB (FR+) (see FIG. 6B) or A549 (FR−) (see FIG. 6C) target cells in the presence of varying concentrations Folate-FITC. Each concentration was carried out in triplicates. Results are shown as average percentage of cytotoxicity.

Data set [2] relates to A549 (FR−) cells. In words: In vitro cytotoxicity assay of anti-FITC-CAR-Ts with Folate-FITC, A549. The data set is classed as cell-based. The note with it: Homo sapiens; for cytotoxicity at 320 fM: 0.32 pM; for cytotoxicity at 0.0002 µM: 200 pM; for cytotoxicity at 0.001 µM: 1000 pM; for cytotoxicity at 0.005 µM: 5000 pM. Here is the method:
as §1, §2, §3

Data set [3] has as its system C4-2 (PSMA+) tumors. In words: In vivo efficacy, subcutaneous C4-2 tumors in NSG mice. The settings on record: s.c. C4-2 tumors. An excerpt: (§4) In brief, subcutaneous C4-2 (PSMA+) tumors were established in non-obese diabetic-severe combined immunodeficiency (NOD-SCID-γ−/−, NSG) mice.
The subject of data set [4] is C4-2 (PSMA+) prostate cancer cells. Put plainly: 24 hr cytotoxicity assay of anti-FITC-CAR T cells with P-TriA-FITC, C4-2. The data set is classed as cell-based. The settings on record: triplicates. The procedure:
as §1, §2
FIG. 5B depicts a scheme for synthesis of the TriA-2-[3-(1,3-dicarboxypropyl)ureido] pentanedioic acid linker to be conjugated to FITC. FIG. 5C depicts the results from a 24 hr cytotoxicity assay of anti-FITC-CAR T cells targeting C4-2 (PSMA+) prostate cancer cells with serial dilutions of P-TriA-FITC. Each concentration was carried out in triplicate. Results are shown as average percentage of cytotoxicity.

Data set [5] can be described thus: Pharmacokinetic study of P-TriA-FITC in mice. The format is in vivo.
Text: as §4

Data set [6] deals with Her2 (UniProt P04626). Put plainly: cell-based or functional assay.
The target in data set [7] is T1, CD19 (human, UniProt P15391 20-556).
T1 sequence (looked up): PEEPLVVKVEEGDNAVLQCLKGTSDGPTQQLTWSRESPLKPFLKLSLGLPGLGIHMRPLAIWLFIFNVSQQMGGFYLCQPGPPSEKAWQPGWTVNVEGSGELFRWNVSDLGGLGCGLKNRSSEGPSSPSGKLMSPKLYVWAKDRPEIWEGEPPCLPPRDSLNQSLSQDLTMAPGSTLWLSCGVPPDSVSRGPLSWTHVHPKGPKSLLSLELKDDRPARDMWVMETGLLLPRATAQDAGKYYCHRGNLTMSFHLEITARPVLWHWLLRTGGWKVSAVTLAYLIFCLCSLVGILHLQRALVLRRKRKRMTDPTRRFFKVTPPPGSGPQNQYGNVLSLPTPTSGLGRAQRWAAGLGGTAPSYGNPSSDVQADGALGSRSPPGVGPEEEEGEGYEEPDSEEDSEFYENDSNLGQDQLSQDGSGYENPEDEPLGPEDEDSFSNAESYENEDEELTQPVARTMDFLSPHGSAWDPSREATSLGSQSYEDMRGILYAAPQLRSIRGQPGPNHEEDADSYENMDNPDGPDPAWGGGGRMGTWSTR
In words: cell-based or functional assay.

Data set [8] addresses T1, CD19. In words: cell-based or functional assay. The source holds these as a separate data set.

Turning to `Nc1nc2ncc(CNc3ccc(C(=O)N[C@H](CCC(=O)NCCNC(=S)Nc4ccc5c(c4)C(=O)OC54c5ccc(O)cc5Oc5cc(O)ccc54)C(=O)O)cc3)nc2c(=O)[nH]1` [FITC-folate switch], the cytotoxicity at 1.6 pM in data set [1] was 16.5%; in data set [1] (T-cell, KB (FR+), non-transduced T cells, 1.6 pM), 3.01%; in data set [2] (4M5.3 CAR-T), 0.527%; in data set [2] (non-transduced T cells), -1.02%. The cytotoxicity at 8 pM in data set [1] was 37.1%; in data set [1] (T-cell, KB (FR+), non-transduced T cells, 8 pM), 2.19%; in data set [2] (4M5.3 CAR-T), 0.765%; in data set [2] (non-transduced T cells) it was -1.05%. For the same molecule, the cytotoxicity at 40 pM is 68.1% in data set [1]; 2.88% in data set [1] (T-cell, KB (FR+), non-transduced T cells, 40 pM); 2.55% in data set [2] (4M5.3 CAR-T); -1.52% in data set [2] (non-transduced T cells). Also, the cytotoxicity at 0.0002 µM in data set [1] was 74.6%; in data set [1] (T-cell, KB (FR+), non-transduced T cells, 200 pM) it was 2.32%; in data set [2] (4M5.3 CAR-T), 5.78%; in data set [2] (non-transduced T cells) it was -0.96%. The cytotoxicity at 0.001 µM in data set [1] is 77.1%; in data set [1] (T-cell, KB (FR+), non-transduced T cells, 1000 pM) it was 2.38%; in data set [2] (4M5.3 CAR-T), 5.87%; in data set [2] (non-transduced T cells), -1.16%. In addition, the cytotoxicity at 0.005 µM is 77% in data set [1]; 2.04% in data set [1] (T-cell, KB (FR+), non-transduced T cells, 5000 pM); 3.15% in data set [2] (4M5.3 CAR-T); -1.61% in data set [2] (non-transduced T cells). For the same molecule, the cytotoxicity at 320 fM was 8.3% in data set [1]; 2.27% in data set [1] (T-cell, KB (FR+), non-transduced T cells, 0.32 pM); 0.957% in data set [2] (4M5.3 CAR-T); -0.986% in data set [2] (non-transduced T cells).
Take `O=C(O)CCC(NC(=O)NC(CCCCn1cc(CCCCCCNC(=O)c2ccc(C(=O)NCCOCCOCCOCCNC(=O)c3ccc4c(c3)C(=O)OC43c4ccc(O)cc4Oc4cc(O)ccc43)cc2)nn1)C(=O)O)C(=O)O` (centres unmarked) [P-TriA-FITC, 2-[3-(1,3-dicarboxypropyl)ureido]pentanedioic acid-TriA-FITC]: the Tumor response result in data set [3] (FITC-CART cells (FITC-E2) i.p. plus switch 1 mg/kg i.v. daily for 10 days) is “tumors had regressed”; in data set [3] (switch only, no CART cells) it was “tumor growth continued”. For the same molecule, the percentage of cytotoxicity in data set [4] (4M5.3 anti-FITC CAR T cells, 0.000512 pM) is 3.992% and 3.358% and 4.689%; in data set [4] (4M5.3 anti-FITC CAR T cells, 0.012800 pM), 3.555% and 1.304% and 1.206%; in data set [4] (4M5.3 anti-FITC CAR T cells, 0.320000 pM) it was 2.224% and 2.545% and 2.965%; in data set [4] (4M5.3 anti-FITC CAR T cells, 8.000000 pM), 9.173% and 10.76% and 7.583%; in data set [4] (4M5.3 anti-FITC CAR T cells, 40.000000 pM) it was 52.56% and 55.81% and 53.56%; in data set [4] (4M5.3 anti-FITC CAR T cells, 200.000000 pM), 77.22% and 76.53% and 73.92%. Further, the percentage of cytotoxicity in data set [4] (4M5.3 anti-FITC CAR T cells, 1000.000000 pM) was 82.62% and 79.94% and 78.91%; in data set [4] (4M5.3 anti-FITC CAR T cells, 5000.000000 pM) it was 82.04% and 77.45% and 78.01%; in data set [4] (Non-transduced T cells, 0.000512 pM), 1.418% and 0.8462% and 1.052%; in data set [4] (Non-transduced T cells, 0.012800 pM), 1.632% and 0.1496% and 0.8552%; in data set [4] (Non-transduced T cells, 0.320000 pM), 0.1943% and 0.5515% and −0.1898%; in data set [4] (Non-transduced T cells, 8.000000 pM) it was 1.409% and 0.4622% and 0.5515%. Besides, the percentage of cytotoxicity in data set [4] (Non-transduced T cells, 40.000000 pM) is −1.11% and −0.5828% and 1.177%; in data set [4] (Non-transduced T cells, 200.000000 pM), −0.5292% and 0.5069% and −0.422%; in data set [4] (Non-transduced T cells, 1000.000000 pM), 0.02456% and 0.09601% and 0.04242%; in data set [4] (Non-transduced T cells, 5000.000000 pM), 1.052% and −0.9132% and 0.1139%. In addition, the “intravenous (IV) half-life t1/2” value in data set [5] was determined as 1.08 ± 0.14 h.
Take “FITC-anti-Her2 antibody CAR-T switch with FITC conjugated at LC S202pAcF (Fab based on Trastuzumab)”: in data set [6], the % cytotoxicity; 0.01 pM switch; MDA MB231 cells was 0%, the % cytotoxicity; 0.1 pM switch; MDA MB231 cells came out at 0%, the % cytotoxicity; 100 pM switch; MDA MB231 cells is 48% and the EC50 of cytotoxicity; SKBR3 cells is 8000 to 20000 pM.

B1: anti-CD19 Fab-FITC switch LG68X (pAzF at glycine 68 of the light chain) (Fab, V domains shown)
VH: EVKLQESGPGLVAPSQSLSVTCTVSGVSLPDYGVSWIRQPPRKGLEWLGVIWGSETTYYNSALKSRLTIIKDNSKSQVFLKMNSLQTDDTAIYYCAKHYYYGGSYAMDYWGQGTSVTVSS
VL: DIQMTQTTSSLSASLGDRVTISCRASQDISKYLNWYQQKPDGTVKLLIYHTSRLHSGVPSRFSGSGSXTDYSLTISNLEQEDIATYFCQQGNTLPYTFGGGTKLEIKR
modifications: p-azidophenylalanine (pAzF) at LC G68, clicked to cyclooctyne-FITC linker
For the molecule B1, in data set [7], the “Cytotoxicity EC50; FITC-E2 CAR-T; NALM6 cells” value stood at 3.53 pM. In data set [8], the “% cytotoxicity; 0.01 pM switch; FITC-E2 CAR-T; NALM6 cells” value came to 0%, the “% cytotoxicity; 0.1 pM switch; FITC-E2 CAR-T; NALM6 cells” value was 3.85%, the “% cytotoxicity; 1 pM switch; FITC-E2 CAR-T; NALM6 cells” value came out at 17.8% and the “% cytotoxicity; 10 pM switch; FITC-E2 CAR-T; NALM6 cells” value came to 56.7%. Also, in data set [8], the “% cytotoxicity; 100 pM switch; FITC-E2 CAR-T; NALM6 cells” value is 78.1% and the “% cytotoxicity; 1000 pM switch; FITC-E2 CAR-T; NALM6 cells” value stood at 74.5%.

B2: anti-CD19 Fab-FITC switch HS74X (pAzF at serine 74 of the heavy chain) (Fab, V domains shown)
VH: EVKLQESGPGLVAPSQSLSVTCTVSGVSLPDYGVSWIRQPPRKGLEWLGVIWGSETTYYNSALKSRLTIIKDNXKSQVFLKMNSLQTDDTAIYYCAKHYYYGGSYAMDYWGQGTSVTVSS
VL: DIQMTQTTSSLSASLGDRVTISCRASQDISKYLNWYQQKPDGTVKLLIYHTSRLHSGVPSRFSGSGSGTDYSLTISNLEQEDIATYFCQQGNTLPYTFGGGTKLEIKR
modifications: pAzF at HC S74, clicked to cyclooctyne-FITC linker
Regarding B2, the “Cytotoxicity EC50; FITC-E2 CAR-T; NALM6 cells” value in data set [7] was found to be 0.97 pM. Besides, in data set [8], the “% cytotoxicity; 0.01 pM switch; FITC-E2 CAR-T; NALM6 cells” value is 0%, the “% cytotoxicity; 0.1 pM switch; FITC-E2 CAR-T; NALM6 cells” value came to 21.4% and the “% cytotoxicity; 1 pM switch; FITC-E2 CAR-T; NALM6 cells” value was 47.6%.
